# Assay results: patent US20040259912A1, “Benzine derivatives, process for preparing the same and use thereof” (priority 2001, published 2004)
# How the values were obtained:
# [1] = tested on: RVR1/CHO and HVR1/CHO strains (CHO-K1 cells expressing rat VR1 / human VR1); conditions: in the presence of 1 μM of the compound; 3 hours reaction, then 20 hours culture with Alama Blue; strain (RVR1/CHO or HVR1/CHO) not specified
# Description: RVR1/CHO and HVR1/CHO strains were inoculated on 96-well microplates (Corning Coaster) at a concentration of 4×10^4 cells/well, respectively and were cultured for 20 hours. After the culture was removed by suction, 180 μl of Ham's F12 medium (GIBCO BRL) containing 10% fetal calf serum (GIBCO BRL) was added to each well. Next, 20 μl of the assay buffer (Ham's F12 medium (GIBCO BRL), 0.5% BSA and 20 mM HEPES (Dojindo Molecular Technologies, Inc.), pH 7.5) containing a test compound at a final concentration of 1 μM was added to each well and the reaction was carried out in a carbon dioxide incubator for 3 hours. Subsequently, and Alama Blue (Wako Pure Chemical Industries, Ltd.) at a concentration of 25 μl was added to each well, and again cultured for 20 hours. Next, fluorescence was measured at excitation wavelength of 530 nm and fluorescence wavelength of 590 nm using multilabel counter (Wallac-Berthold, Japan), and survival rate of cell was determined.
# According to the above-mentioned method, the agonist activity of test compounds was determined.
# ICR male mice [2] = conditions: 0.01 mL dropped to the eye; capsaicin (0.3 μg) challenge at 1 hour; stimulating or desensitizing activity not specified
# Description: Eight of 4-5 weeks old ICR male mice (Japan SLC) were used in a group. 0.01 mL of the drug was added dropwise to the eye, and the time when the mouse continued to close the eye was measured. The stimulation of the drug was evaluated as positive when the time is more than 10 seconds, and as negative when the time is less than 10 seconds. At 1 hour after the initial treatment, a solution of capsaicin (0.3 μg) was added dropwise to the eye to evaluate whether the stimulation is or not, and examined the desensitizing activity of the compound. The stimulating and desensitizing activity of the drug were calculated as a value of ED50. The drug was dissolved in a mixture of 10% ethanol, 20% Tween and 80-70% physiological salt solution.
# ICR male mice [3] = conditions: subcutaneous; 55° C. water bath; time measured after 1, 3 and 6 hours
# Description: Four to five weeks old ICR male mice (Japan SLC) were used in this test. The mouse was put into a retainer, the tail end was dipped into 55° C. water bath, and the time until the tail end rose to the surface was measured. The time was previously measured before the administration of the drug, and the mouse having the time of less than 2 seconds were selected and used in the test. Cut-off time was set to 10 seconds. The drug was administered subcutaneously, and the time was measured after 1, 3 and 6 hours to evaluate the effects of the drug. The drug was dissolved in a mixture of 10% ethanol, 20% Tween and 80-70% physiological salt solution.
# ICR male mice [4] = experiment: Measurement of mouse bladder volume; format: in vivo; conditions: for Bladder volume / Bladder volume (mL): sc, 3 hours after administration, urethane anesthesia, Mean ± S.E.; for bladder volume of the mouse (result in words): subcutaneous, mouse anesthetized with urethane
# Description: Measurement of Mouse Bladder Volume
# Five weeks old ICR male mice were used in this test. At 3 hours after the subcutaneous administration of the drug, the abdomen of mouse was cut open under urethane anesthesia (30 mg/mouse) to expose the bladder. Physiological salt solution was infused into the bladder at the rate of 0.05 mL/minutes to check excretion reflection. All of the urine was drained off, and the physiological salt solution was infused again, and then, the bladder volume of mouse was calculated by measuring the time to urination.
Structure (SMILES),survival rate of the cells [1],ED50 (ICR male mice [2]),Minimum effective dose (ICR male mice [3]),Bladder volume (ICR male mice [4]; 3 mg/kg),"Bladder volume (mL) (ICR male mice [4]; 10 mg/kg, *p ≦ 0.05 vs. vehicle)","Bladder volume (mL) (ICR male mice [4]; 100 mg/kg, **p ≦ 0.01 vs. vehicle)",bladder volume of the mouse (result in words) (ICR male mice [4]),Bladder volume (ICR male mice [4]; 0.03 mg/kg),"Bladder volume (mL) (ICR male mice [4]; 0.1 mg/kg, *p ≦ 0.05 vs. vehicle)"
"CCC(=O)c1cc(NC(=O)Nc2ccc(OC)c(OC)c2)ccc1OC(c1ccccc1)c1ccccc1 [Example 2, N-[(4-Benzhydryloxy)-3-propionylphenyl]-N′-(3,4-dimethoxyphenyl)urea]",0%,2.2 µg,1 mg/kg,–,–,–,–,–,–
"COC(=O)c1cc(NC(=O)Nc2ccccc2)ccc1OC(c1ccccc1)c1ccccc1 [Example 22, Methyl 5-(anilinocarbonylamino)-2-benzhydryloxybenzoate]",–,–,–,0.17 ± 0.03 mL,0.28 ± 0.05* mL,0.31 ± 0.06** mL,increased significantly,–,–
"C=C(C)[C@]12C[C@@H](C)[C@@]34O[C@](Cc5ccccc5)(O[C@@H]1[C@@H]3C=C(COC(=O)Cc1ccc(O)c(OC)c1)C[C@]1(O)C(=O)C(C)=C[C@@H]41)O2 [Resiniferatoxin, resiniferatoxin, reference compound]",–,–,–,–,–,–,increased significantly,0.24 ± 0.04 mL,0.39 ± 0.04* mL
